One data set deals with keratinocytes. The data set is described as follows: Keratinocyte migration, Boyden chambers. Format: cell-based. The following applies: for inhibition of keratinocyte migration, dose dependence: Boyden chamber and scratch assays. How it is done:
Compounds 1 and 2 were used to examine the functional effects of processing by BMP-1 related proteins on keratinocyte migration. […] Keratinocytes were analyzed for migration in Boyden chambers in the presence of increasing amounts of the inhibitors. […] (Koivunen et al. (1999) Nature Biotechnology 17:768-774.)

The next data set addresses T1, MMP-2 (Homo sapiens, UniProt P08253).
T1 sequence (P08253 110-660): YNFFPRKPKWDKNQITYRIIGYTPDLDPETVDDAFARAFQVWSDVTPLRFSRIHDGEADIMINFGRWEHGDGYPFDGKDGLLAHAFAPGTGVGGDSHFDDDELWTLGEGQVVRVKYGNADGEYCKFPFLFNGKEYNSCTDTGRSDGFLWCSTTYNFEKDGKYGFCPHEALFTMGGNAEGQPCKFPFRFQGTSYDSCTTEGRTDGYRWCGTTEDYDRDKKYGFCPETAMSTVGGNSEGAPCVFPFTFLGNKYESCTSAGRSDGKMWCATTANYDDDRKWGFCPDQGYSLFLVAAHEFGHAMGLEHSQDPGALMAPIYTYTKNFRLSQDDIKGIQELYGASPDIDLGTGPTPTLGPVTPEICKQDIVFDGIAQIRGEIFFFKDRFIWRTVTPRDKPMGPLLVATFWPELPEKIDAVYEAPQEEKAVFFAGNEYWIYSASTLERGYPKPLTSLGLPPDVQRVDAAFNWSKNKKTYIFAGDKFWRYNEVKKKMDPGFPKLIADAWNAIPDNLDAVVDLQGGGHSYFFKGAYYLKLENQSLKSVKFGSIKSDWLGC
The data set is described as follows: Inhibition of MMP-2 activity. The format is biochemical.

The target in another data set is MMP-9 (Homo sapiens, UniProt P14780). The data set is described as follows: Inhibition of MMP-9 activity. Format: biochemical.
Sequence of MMP-9 (P14780 94-707, species assumed): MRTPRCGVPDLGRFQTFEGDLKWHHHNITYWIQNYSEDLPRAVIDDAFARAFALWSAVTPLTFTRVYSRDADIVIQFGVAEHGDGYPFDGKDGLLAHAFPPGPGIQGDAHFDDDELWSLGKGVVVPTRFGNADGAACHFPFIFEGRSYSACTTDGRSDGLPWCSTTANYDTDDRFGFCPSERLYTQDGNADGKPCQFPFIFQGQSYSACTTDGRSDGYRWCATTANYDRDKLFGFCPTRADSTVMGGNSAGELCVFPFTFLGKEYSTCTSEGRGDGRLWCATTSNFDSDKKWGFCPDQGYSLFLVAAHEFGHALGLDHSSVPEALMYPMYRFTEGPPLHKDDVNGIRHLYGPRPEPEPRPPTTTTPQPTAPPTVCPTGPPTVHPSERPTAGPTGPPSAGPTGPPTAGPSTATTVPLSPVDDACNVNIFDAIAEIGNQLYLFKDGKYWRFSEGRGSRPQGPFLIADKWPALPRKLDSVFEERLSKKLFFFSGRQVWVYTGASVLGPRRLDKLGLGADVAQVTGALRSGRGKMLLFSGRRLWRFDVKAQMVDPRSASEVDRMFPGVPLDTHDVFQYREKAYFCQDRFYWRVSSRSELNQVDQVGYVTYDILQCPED
The next data set deals with cultured cells. The data set can be described thus: Toxicity to cultured cells. The format is cell-based. The settings on record: for toxicity to cultured cells at 100 times inhibitory levels: 100 times the concentration which inhibited BMP-1 activity; for toxic effect on cells: cell culture.
The next data set relates to squamous carcinoma cells. The data set is described as follows: Migration of squamous carcinoma cells (general statement). Format: cell-based.
The next data set concerns the target T2, BMP-1 (Homo sapiens, UniProt P13497).
T2 sequence (P13497 121-730 isoform P13497-2 limits assumed): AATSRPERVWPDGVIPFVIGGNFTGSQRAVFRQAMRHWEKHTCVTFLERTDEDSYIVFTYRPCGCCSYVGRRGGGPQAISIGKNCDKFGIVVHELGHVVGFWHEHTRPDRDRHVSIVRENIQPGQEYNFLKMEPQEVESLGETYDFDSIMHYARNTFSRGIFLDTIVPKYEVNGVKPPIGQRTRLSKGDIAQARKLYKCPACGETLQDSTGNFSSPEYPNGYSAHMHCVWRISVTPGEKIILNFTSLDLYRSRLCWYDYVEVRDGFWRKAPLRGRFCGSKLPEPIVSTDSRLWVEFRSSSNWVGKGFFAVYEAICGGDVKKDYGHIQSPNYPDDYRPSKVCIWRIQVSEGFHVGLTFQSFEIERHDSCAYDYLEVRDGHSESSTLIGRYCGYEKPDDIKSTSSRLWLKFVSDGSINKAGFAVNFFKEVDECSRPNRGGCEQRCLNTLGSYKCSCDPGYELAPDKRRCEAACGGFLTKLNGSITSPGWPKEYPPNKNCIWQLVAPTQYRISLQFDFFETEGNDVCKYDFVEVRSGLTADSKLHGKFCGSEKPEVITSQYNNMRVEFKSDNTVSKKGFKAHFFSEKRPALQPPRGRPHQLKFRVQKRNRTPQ
The data set is described as follows: Inhibition of BMP-1 activity, enzyme-based assays of collagen proteolysis. Format: biochemical.

Another data set has as its target T3, MMP-1 (Homo sapiens, UniProt P03956).
T3 sequence (P03956 100-469): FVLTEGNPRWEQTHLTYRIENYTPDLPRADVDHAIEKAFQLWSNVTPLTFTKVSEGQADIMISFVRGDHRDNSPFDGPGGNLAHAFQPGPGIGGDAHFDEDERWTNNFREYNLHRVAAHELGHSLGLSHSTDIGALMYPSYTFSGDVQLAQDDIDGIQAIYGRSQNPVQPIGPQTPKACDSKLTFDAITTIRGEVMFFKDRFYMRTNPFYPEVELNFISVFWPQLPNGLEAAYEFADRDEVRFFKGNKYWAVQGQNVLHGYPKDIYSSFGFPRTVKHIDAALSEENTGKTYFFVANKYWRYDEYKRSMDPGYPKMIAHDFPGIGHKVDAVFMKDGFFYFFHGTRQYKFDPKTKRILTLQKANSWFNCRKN
The data set can be described thus: Inhibition of MMP-1 activity. Format: biochemical.

The target in a further data set is MT1-MMP (Homo sapiens, UniProt P50281). The data set can be described thus: Inhibition of MT1-MMP activity. Format: biochemical.
Data set [1] addresses unprocessed human laminin 5 (α3 chain of 200 kDa, β3 chain of 140 kDa, γ2 chain of 155 kDa) (UniProt Q16787).
For data set [2], the target named is unprocessed human laminin 5 (α3 chain of 200 kDa, β3 chain of 140 kDa, γ2 chain of 155 kDa), Q16787.
Sequence of unprocessed human laminin 5 (α3 chain of 200 kDa, β3 chain of 140 kDa, γ2 chain of 155 kDa), Q16787 (Q16787 whole entry, looked up): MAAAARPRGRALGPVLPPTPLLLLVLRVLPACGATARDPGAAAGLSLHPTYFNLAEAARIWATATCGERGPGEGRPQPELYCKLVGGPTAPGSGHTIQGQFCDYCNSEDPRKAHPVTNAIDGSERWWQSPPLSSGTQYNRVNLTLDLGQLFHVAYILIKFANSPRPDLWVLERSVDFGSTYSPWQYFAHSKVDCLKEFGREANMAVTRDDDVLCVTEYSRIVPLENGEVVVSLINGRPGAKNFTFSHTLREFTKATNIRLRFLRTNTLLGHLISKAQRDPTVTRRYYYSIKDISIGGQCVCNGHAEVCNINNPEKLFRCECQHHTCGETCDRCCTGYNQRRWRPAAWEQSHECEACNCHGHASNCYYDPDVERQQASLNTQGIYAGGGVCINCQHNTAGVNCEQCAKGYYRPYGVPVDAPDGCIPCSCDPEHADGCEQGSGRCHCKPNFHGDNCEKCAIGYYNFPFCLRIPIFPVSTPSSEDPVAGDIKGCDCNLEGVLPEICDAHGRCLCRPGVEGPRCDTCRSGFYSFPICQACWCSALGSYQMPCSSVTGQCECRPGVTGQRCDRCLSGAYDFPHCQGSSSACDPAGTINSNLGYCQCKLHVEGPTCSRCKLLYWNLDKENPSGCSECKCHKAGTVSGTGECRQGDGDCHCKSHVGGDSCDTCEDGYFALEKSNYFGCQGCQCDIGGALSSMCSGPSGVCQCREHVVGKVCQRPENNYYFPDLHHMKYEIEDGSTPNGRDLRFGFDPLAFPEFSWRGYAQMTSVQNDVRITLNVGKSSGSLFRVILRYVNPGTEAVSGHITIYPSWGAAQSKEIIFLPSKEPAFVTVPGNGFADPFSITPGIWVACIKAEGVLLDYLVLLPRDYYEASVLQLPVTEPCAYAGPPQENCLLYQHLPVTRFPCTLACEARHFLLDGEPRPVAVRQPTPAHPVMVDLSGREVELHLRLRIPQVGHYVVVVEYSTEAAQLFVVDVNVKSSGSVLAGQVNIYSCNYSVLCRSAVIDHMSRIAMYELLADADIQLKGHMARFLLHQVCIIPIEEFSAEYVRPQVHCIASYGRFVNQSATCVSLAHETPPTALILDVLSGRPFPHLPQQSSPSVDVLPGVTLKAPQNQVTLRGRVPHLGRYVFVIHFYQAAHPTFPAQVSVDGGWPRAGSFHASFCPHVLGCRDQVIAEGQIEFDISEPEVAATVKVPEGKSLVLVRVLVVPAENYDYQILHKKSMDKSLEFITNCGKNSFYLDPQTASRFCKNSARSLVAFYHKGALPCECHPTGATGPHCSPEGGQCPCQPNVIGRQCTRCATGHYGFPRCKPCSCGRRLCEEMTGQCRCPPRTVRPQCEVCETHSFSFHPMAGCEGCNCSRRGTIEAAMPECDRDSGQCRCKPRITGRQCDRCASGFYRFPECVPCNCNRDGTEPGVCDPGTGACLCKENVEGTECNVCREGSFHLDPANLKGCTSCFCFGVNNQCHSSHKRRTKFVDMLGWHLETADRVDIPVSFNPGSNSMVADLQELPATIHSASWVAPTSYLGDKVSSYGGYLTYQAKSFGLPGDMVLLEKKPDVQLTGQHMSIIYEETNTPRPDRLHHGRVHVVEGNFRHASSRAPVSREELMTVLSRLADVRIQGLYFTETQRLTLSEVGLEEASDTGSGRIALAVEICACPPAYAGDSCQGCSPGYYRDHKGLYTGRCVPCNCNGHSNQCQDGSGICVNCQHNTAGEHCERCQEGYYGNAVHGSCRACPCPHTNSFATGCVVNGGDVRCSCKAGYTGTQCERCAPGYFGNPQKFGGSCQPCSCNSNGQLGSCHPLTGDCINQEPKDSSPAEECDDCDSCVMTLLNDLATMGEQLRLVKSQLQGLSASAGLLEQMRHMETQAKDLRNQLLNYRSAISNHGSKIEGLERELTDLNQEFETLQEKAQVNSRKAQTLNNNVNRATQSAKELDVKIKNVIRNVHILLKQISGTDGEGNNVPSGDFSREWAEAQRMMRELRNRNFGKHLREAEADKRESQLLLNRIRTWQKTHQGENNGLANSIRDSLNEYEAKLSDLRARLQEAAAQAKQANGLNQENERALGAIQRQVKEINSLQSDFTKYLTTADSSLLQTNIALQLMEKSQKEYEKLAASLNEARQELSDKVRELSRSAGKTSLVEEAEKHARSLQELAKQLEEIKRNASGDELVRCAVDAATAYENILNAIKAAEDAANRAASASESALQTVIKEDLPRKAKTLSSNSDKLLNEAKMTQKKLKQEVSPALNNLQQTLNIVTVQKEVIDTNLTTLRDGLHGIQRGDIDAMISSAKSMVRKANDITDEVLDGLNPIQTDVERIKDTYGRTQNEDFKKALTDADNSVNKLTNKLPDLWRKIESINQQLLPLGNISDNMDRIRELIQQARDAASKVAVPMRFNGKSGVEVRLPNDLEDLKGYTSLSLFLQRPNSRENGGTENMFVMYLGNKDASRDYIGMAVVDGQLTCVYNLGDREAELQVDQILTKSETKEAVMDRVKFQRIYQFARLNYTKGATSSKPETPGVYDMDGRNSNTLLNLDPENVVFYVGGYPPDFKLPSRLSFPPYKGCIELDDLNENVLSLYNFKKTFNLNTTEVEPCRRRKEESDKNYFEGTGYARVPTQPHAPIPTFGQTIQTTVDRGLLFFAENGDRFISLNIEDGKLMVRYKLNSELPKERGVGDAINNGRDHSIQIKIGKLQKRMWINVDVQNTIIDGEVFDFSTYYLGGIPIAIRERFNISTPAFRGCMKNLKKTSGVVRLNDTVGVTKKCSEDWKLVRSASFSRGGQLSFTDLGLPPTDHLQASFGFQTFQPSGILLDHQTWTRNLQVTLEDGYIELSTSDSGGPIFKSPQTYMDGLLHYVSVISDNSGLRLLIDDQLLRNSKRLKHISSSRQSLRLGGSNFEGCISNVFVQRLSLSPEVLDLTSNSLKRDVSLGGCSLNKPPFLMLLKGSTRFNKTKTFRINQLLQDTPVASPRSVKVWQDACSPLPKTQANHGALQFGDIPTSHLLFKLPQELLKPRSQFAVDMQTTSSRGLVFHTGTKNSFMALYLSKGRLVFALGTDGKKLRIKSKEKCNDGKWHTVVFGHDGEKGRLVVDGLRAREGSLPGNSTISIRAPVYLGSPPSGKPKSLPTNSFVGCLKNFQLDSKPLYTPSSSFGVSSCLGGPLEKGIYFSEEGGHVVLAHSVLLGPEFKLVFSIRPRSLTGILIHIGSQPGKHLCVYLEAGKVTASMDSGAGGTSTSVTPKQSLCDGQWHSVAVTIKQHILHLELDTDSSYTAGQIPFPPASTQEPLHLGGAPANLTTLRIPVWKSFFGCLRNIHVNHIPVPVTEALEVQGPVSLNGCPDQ

“Also recorded” adds a separate entry of the source.

Sequence of unprocessed human laminin 5 (α3 chain of 200 kDa, β3 chain of 140 kDa, γ2 chain of 155 kDa) (Q16787 whole entry, looked up): as above

Turning to `O=C(CCCC1C(=O)N(C23CC4CC(CC(C4)C2)C3)C(=O)N1Cc1ccccn1)NO` (stereo not shown) [Compound 1], in the data set on keratinocytes, the “inhibition of keratinocyte migration” value is listed as “potently inhibit” and the “inhibition of keratinocyte migration, dose dependence” value is “inhibition of KC migration in a dose-dependent manner”. For the same molecule, in the data set with keratinocytes (Boyden chambers), the “dose required to achieve nearly complete inhibition of migration” value was determined as 23 µM. Besides, in the data set on keratinocytes (Boyden chambers, 0, 10, 23 μM), the “inhibition of migration of keratinocytes, dose dependence” value is recorded as “dose dependent”. For the same molecule, at MMP-2, the “inhibition of activity of MMP-2” value is “no inhibition”. In addition, the “inhibition of activity of MMP-9” value against MMP-9 is on record as “no inhibition”. For the same molecule, in the data set on cultured cells, the “toxicity to cultured cells at 100 times inhibitory levels” value is “nontoxic” and the “toxic effect on cells” value was “nontoxic; also recorded: no toxic effect on cells”. Besides, the “inhibition of migration of squamous carcinoma cells” value in the data set with squamous carcinoma cells is reported as “potently inhibit”. Moreover, the “inhibition of BMP-1 activity” value against BMP-1 was “showed inhibition of BMP-1 activity”. The “inhibition of activity of MMP-1” value at MMP-1 is recorded as “no inhibition”. Also, on MT1-MMP, the “inhibition of activity of MT1-MMP” value is on record as “no inhibition”.
For human mammalian tolloid (mTld), the “cleavage of the α3 chain of laminin 5 (matrix digestion, western blot)” value in data set [1] is “BMP-1, mTld, mTll-1, and mTLL-2 all cleaved the α3 chain of laminin 5”.
For `COc1ccc(CCN(CCC(=O)NO)S(=O)(=O)c2ccc(C(N)=NO)cc2)cc1` [Compound 3], in the data set on keratinocytes, the “inhibition of keratinocyte migration” value is “potently inhibit” and the “inhibition of keratinocyte migration, dose dependence” value is reported as “inhibition of KC migration in a dose-dependent manner”. In addition, the “inhibition of activity of MMP-2” value against MMP-2 is given as “no inhibition”. In addition, at MMP-9, the “inhibition of activity of MMP-9” value was “no inhibition”. Besides, in the data set on cultured cells, the “toxicity to cultured cells at 100 times inhibitory levels” value is reported as “nontoxic” and the “toxic effect on cells” value is “low cytotoxicity; also recorded: no toxic effect on cells”. The “inhibition of migration of squamous carcinoma cells” value in the data set on squamous carcinoma cells is “potently inhibit”. At BMP-1, the “inhibition of BMP-1 activity” value was “showed inhibition of BMP-1 activity” and the “potency of BMP-1 inhibition relative to the other compounds” value is “slightly less potent”. Moreover, on MMP-1, the “inhibition of activity of MMP-1” value is “no inhibition”. The “inhibition of activity of MT1-MMP” value on MT1-MMP was “no inhibition”.

B1: human mammalian tolloid-like-1 (mTll-1) (protein)
chain: AATSRTERIWPGGVIPYVIGGNFTGSQRAMFKQAMRHWEKHTCVTFIERSDEESYIVFTYRPCGCCSYVGRRGNGPQAISIGKNCDKFGIVVHELGHVIGFWHEHTRPDRDNHVTIIRENIQPGQEYNFLKMEPGEVNSLGERYDFDSIMHYARNTFSRGMFLDTILPSRDDNGIRPAIGQRTRLSKGDIAQARKLYRCPACGETLQESNGNLSSPGFPNGYPSYTHCIWRVSVTPGEKIVLNFTTMDLYKSSLCWYDYIEVRDGYWRKSPLLGRFCGDKLPEVLTSTDSRMWIEFRSSSNWVGKGFAAVYEAICGGEIRKNEGQIQSPNYPDDYRPMKECVWKITVSESYHVGLTFQSFEIERHDNCAYDYLEVRDGTSENSPLIGRFCGYDKPEDIRSTSNTLWMKFVSDGTVNKAGFAANFFKEEDECAKPDRGGCEQRCLNTLGSYQCACEPGYELGPDRRSCEAACGGLLTKLNGTITTPGWPKEYPPNKNCVWQVVAPTQYRISVKFEFFELEGNEVCKYDYVEIWSGLSSESKLHGKFCGAEVPEVITSQFNNMRIEFKSDNTVSKKGFKAHFFSDKDECSKDNGGCQHECVNTMGSYMCQCRNGFVLHDNKHDCKEAECEQKIHSPSGLITSPNWPDKYPSRKECTWEISATPGHRIKLAFSEFEIEQHQECAYDHLEVFDGETEKSPILGRLCGNKIPDPLVATGNKMFVRFVSDASVQRKGFQATHSTECGGRLKAESKPRDLYSHAQFGDNNYPGQVDCEWLLVSERGSRLELSFQTFEVEEEADCGYDYVELFDGLDSTAVGLGRFCGSGPPEEIYSIGDSVLIHFHTDDTINKKGFHIRYKSIRYPDTTHTKK
In the case of B1, the “cleavage of the α3 chain of laminin 5 (matrix digestion, western blot)” value in data set [2] is “BMP-1, mTld, mTll-1, and mTLL-2 all cleaved the α3 chain of laminin 5”.

B2: human mammalian tolloid-like-2 (mTll-2) (protein)
chain: ATTSRTERIWPGGVIPYVIGGNFTGSQRAIFKQAMRHWEKHTCVTFIERTDEESFIVFSYRTCGCCSYVGRRGGGPQAISIGKNCDKFGIVAHELGHVVGFWHEHTRPDRDQHVTIIRENIQPGQEYNFLKMEAGEVSSLGETYDFDSIMHYARNTFSRGVFLDTILPRQDDNGVRPTIGQRVRLSQGDIAQARKLYKCPACGETLQDTTGNFSAPGFPNGYPSYSHCVWRISVTPGEKIVLNFTSMDLFKSRLCWYDYVEVRDGYWRKAPLLGRFCGDKIPEPLVSTDSRLWVEFRSSSNILGKGFFAAYEATCGGDMNKDAGQIQSPNYPDDYRPSKECVWRITVSEGFHVGLTFQAFEIERHDSCAYDYLEVRDGPTEESALIGHFCGYEKPEDVKSSSNRLWMKFVSDGSINKAGFAANFFKEVDECSWPDHGGCEHRCVNTLGSYKCACDPGYELAADKKMCEVACGGFITKLNGTITSPGWPKEYPTNKNCVWQVVAPAQYRISLQFEVFELEGNDVCKYDFVEVRSGLSPDAKLHGRFCGSETPEVITSQSNNMRVEFKSDNTVSKRGFRAHFFSDKDECAKDNGGCQHECVNTFGSYLCRCRNGYWLHENGHDCKEAGCAHKISSVEGTLASPNWPDKYPSRRECTWNISSTAGHRVKLTFNEFEIEQHQECAYDHLEMYDGPDSLAPILGRFCGSKKPDPTVASGSSMFLRFYSDASVQRKGFQAVHSTECGGRLKAEVQTKELYSHAQFGDNNYPSEARCDWVIVAEDGYGVELTFRTFEVEEEADCGYDYMEAYDGYDSSAPRLGRFCGSGPLEEIYSAGDSLMIRFRTDDTINKKGFHARYTSTKFQDALHMKK
Take B2: in data set [2], the “cleavage activity toward the α3 chain and γ2 chain of laminin 5, compared with the other BMP-1 related proteins” value was “mTll-2 showed more potent cleavage activity toward the α3 chain and γ2 chain of laminin 5 compared to the other BMP-1 related proteins”; the “cleavage of the α3 chain of laminin 5 (matrix digestion, western blot)” value was “BMP-1, mTld, mTll-1, and mTLL-2 all cleaved the α3 chain of laminin 5”; the “cleavage of the γ2 chain of laminin 5 (matrix digestion, western blot)” value is “BMP-1 and mTLL-2 cleaved the γ2 chain of laminin 5”.

B3: human BMP-1 (bone morphogenetic protein-1) (protein)
chain: T2 sequence (P13497 121-730 isoform P13497-2 limits assumed)
As for B3, in data set [2], the “cleavage of the α3 chain of laminin 5 (matrix digestion, western blot)” value was “BMP-1, mTld, mTll-1, and mTLL-2 all cleaved the α3 chain of laminin 5”; the “cleavage of the γ2 chain of laminin 5 (matrix digestion, western blot)” value is “BMP-1 and mTLL-2 cleaved the γ2 chain of laminin 5”; the “processing of the laminin 5 α3 chain (about 1 µg laminin 5 with 30 ng/ml BMP-1, 16 hours at 37° C., western blot)” value was “laminin α3 chain was completely processed from 200 kDa to 165 kDa by BMP-1”.

The record behind these values is patent publication US20020076736A1, “Methods of affecting laminin 5 processing” (priority 2000, published 2002).
